Patent publication US12024571B2, “Anti-erythropoietin receptor peptide” (Epo-Med Inc., priority 2018, dated 2024)
Bridge positions count the residues as written; N and C are the ends. Square brackets hold non-standard residues; d marks the D form. Peptide text beside a SMILES is read from it. * marks the point of attachment. Ala(benzothiazol-2-yl) = N[C@@H](Cc1nc2ccccc2s1)C(=O)O; Propionyl = CCC(=O)*

Experiments:
[1] = tested on: human pancreatic cancer derived AsPC-1 cells; assay: AsPC-1 cell proliferation, WST assay; assay type: cell-based; details: 72 hours; for proliferation inhibiting action against AsPC-1 cells (inhibition ratio against control): 10, 30 or 100 μM, FIG. 43
Procedure: Human pancreatic cancer derived AsPC-1 cells (ECACC, 96020930) were passaged (twice/week) under the condition of 37° C. and 5% CO2-95% air using an RPMI-1640 medium (Sigma, R8758-500 ML) comprising 10% fetal bovine serum (biowest, S182H-500) and 1 mM sodium pyruvate (gibco, 11360-070). The AsPC-1 cells were collected from a culture dish using 0.05% trypsin-0.02% EDTA solution (Sigma, T4174-100 ML). The cells were suspended in the medium and then seeded on a 96-well microplate (3×10^3/0.05 mL/well). After culturing the cells overnight, a medium comprising the test compounds (total of 43 compounds, final concentration of 150 μM) was added (0.05 mL/well, 3 wells/test compound). After 72 hours, the cell proliferation capability for each well was measured by a WST assay (DOJINDO LABORATORIES, Cell Counting Kit-8), and the inhibition ratio for each test compound against the control (test compound-free well) was calculated.
A WST assay is a viable cell count measuring method, which uses water-soluble tetrazolium salt WST-8 as a coloring reagent and uses water-soluble formazan generated by reduction of WST-8 as an indicator of viable cell count. NADH produced by a dehydrogenase in a cell converts WST-8 to water-soluble formazan. Since the generated water-soluble formazan has the maximum absorbance at about 450 nm, the viable cell count is indicated by measuring the absorbance at such a wavelength region.
Human pancreatic cancer derived AsPC-1 cells (ECACC, 96020930) were cultured, collected, and seeded on a 96-well microplate (3×10^3/0.05 mL/well) in the same manner as Example 3. After culturing the cells overnight, a medium comprising the test compounds (10, 30, or 100 μM) was added (0.05 mL/well, 3 wells/test compound). After 72 hours, the cell proliferation capability for each well was measured by a WST assay (DOJINDO LABORATORIES, Cell Counting Kit-8), and the inhibition ratio for each test compound against the control (test compound-free well) was computed.

[2] = tested on: human leukemia derived UT-7 cells; assay: Epo dependent UT-7 cell proliferation, WST assay; assay type: cell-based; details: Epo 1 U/mL, 4 days; GT-11309 1 to 100 μM, antibodies 1 to 100 μg/mL; FIG. 42
Procedure: Human leukemia derived UT-7 cells (provided by Dr. Fujita at the Hokkaido University) were passaged (twice/week) under the condition of 37° C. and 5% CO2-95% air using a D-MEM medium (Sigma, D5796-500 ML) comprising recombinant human erythropoietin (Epo, 2 U/mL) and 10% fetal bovine serum (biowest, S182-H-500), and cultured for a total of 9 weeks. The Epo treated UT-7 cells were washed three times and seeded on a 96-well microplate (1×10^4/well). An anti-Epo monoclonal antibody (clone R6, provided by Dr. Masuda at the Kyoto University, 1 to 100 μg/mL), anti-EpoR monoclonal antibody (clone 713210, R&D Systems, MAB3073, 1 to 100 μg/mL) or GT-11309 (1 to 100 μM), in the presence of Epo (0 to 10 U/mL) or Epo (1 U/mL), was added. After 4 days of culture, the cell proliferation capability for each well was measured as absorbance at 450 nm by a WST assay (DOJINDO LABORATORIES, Cell Counting Kit-8).

[3] = tested on: human liver cancer derived HepG2 cells; assay: Lethal effect of synthetic peptides on HepG2 cells (Trypan blue positive cell count); assay type: cell-based; details: 120, 60, 30 or 15 μM, 24 hours; FIGS. 34 to 37
[4] = tested on: human T cell leukemia derived ATL-2 cells; assay: ATL-2 cell proliferation, WST assay; assay type: cell-based; details: 150 μM, 72 hours, FIG. 39
Procedure: Human T cell leukemia derived ATL-2 cells (provided by Dr. Maeda at the Kyoto University) were passaged (twice/week) under the condition of 37° C. and 5% CO2-95% air using an RPMI-1640 medium (Sigma, R8758-500 mL) comprising 10% fetal bovine serum (biowest, S182H-500). The ATL-2 cells were collected from a culture flask. The cells were suspended in the medium and then seeded on a 96-well microplate (3×10^3/0.05 mL/well). After culturing the cells overnight, a medium comprising the test compounds (total of 32 compounds, final concentration of 150 μM) was added (0.05 mL/well, 3 wells/test compound). After 72 hours, the cell proliferation capability for each well was measured by a WST assay (DOJINDO LABORATORIES, Cell Counting Kit-8), and the inhibition ratio for each test compound against the control (test compound-free well) was calculated.

[5] = tested on: human pancreatic cancer derived AsPC-1 cells; assay: Tumor growth in AsPC-1 cancer-bearing nude mouse model; assay type: in vivo; details: intraperitoneal; for antitumor effect (relative tumor volume): total 0.2 mg/day, 3 times a week for 2 weeks, FIG. 40
Procedure: (§1) Human pancreatic cancer derived AsPC-1 cells (ECACC, 96020930) were cultured and collected in the same manner as Example 3, suspended in the RPMI-1640 medium described above comprising 10% Matrigel (BD Bioscience, 354234), and transplanted subcutaneously to the right side on the back of a 6-week-old male nude mouse (SLC, BALB/cSlc-nu/nu) (5×10^6/0.1 mL/mouse). The length (L) and width (W) of the tumor were measured using a digital caliper. When the tumor volume (V) calculated from the formula V=L×W^2/2 reached about 150 to 200 mm^3, the mice were separated into groups and administered with test compounds (total of 8 compounds including GT-11263). Saline was administered to a control group. The compounds were administered intraperitoneally (0.1 mL/mouse, 3 to 5 mice/test compound) 3 times daily (one hour interval, a total of 0.2 mg/day), 3 times a week for 2 weeks. The tumor size and body weight were measured twice a week to monitor the status of tumor growth and the effect of the administration of test compounds.
In the same manner as Example 5, human pancreatic cancer derived AsPC-1 cells were transplanted subcutaneously to the right side on the back of a 6-week-old male nude mouse (SLC, BALB/cSlc-nu/nu) (5×10^6/0.1 mL/mouse). The length (L) and width (W) of the tumor were measured using a digital caliper. When the tumor volume (V) calculated from the formula V=L×W^2/2 reached about 150 to 200 mm^3, the mice were separated into groups and administered with test compounds (GT-11269, GT-11309, and GT-11350). Saline was administered to a control group. The compounds were administered intraperitoneally (0.1 mL/mouse, 5 mice/test compound) 3 times daily (one hour interval, a total of 0.5 mg/day), twice a week for 4 weeks. The tumor size and body weight were measured twice a week to monitor the effect of the administration of test compounds (FIG. 45).
(§2) In the same manner as Example 5, human pancreatic cancer derived AsPC-1 cells were transplanted subcutaneously to the right side on the back of a 6-week-old male nude mouse (SLC, BALB/cSlc-nu/nu), and when the tumor volume (V) reached about 150 to 200 mm^3, the mice were separated into groups and administered with test compounds (GT-11350). Saline was administered to a control group. The compounds were administered intraperitoneally (0.1 mL/mouse) 3 times daily (one hour interval, a total of 0.1 mg, 0.2 mg, or 0.4 mg/day), twice a week for 4 weeks. The tumor size and body weight were measured twice a week to monitor the effect of the dose of test compounds (FIG. 49).
as §2, with “of” for “of 0.1 mg,”, “mg/day)” for “mg,”, “once daily (0.2” for “0.4”, “administration” for “dose”, “compounds.” for “compounds (FIG. 49).”

[6] = Hematocrit value and blood hemoglobin concentration in AsPC-1 cancer-bearing mice; assay type: in vivo, mouse; details: day 4 from final administration, 0.1, 0.2 or 0.4 mg/day; FIG. 50
Procedure: (§3) Blood was drawn on day 6 from the final administration from an AsPC-1 cancer-bearing mouse administered with GT-11269, GT-11309, or GT-11350 by the same protocol, and the hematocrit value was measured by the capillary method using a high speed centrifuge. The blood hemoglobin concentration was also measured using a commercially available measurement kit (BioAssay Systems, DIHB-250) (FIG. 47).
as §3, with “4” for “6”, “with” for “with GT-11269, GT-11309, or”, “50).” for “47).”

[7] = Body weight of AsPC-1 cancer-bearing mice given peptides; assay type: in vivo, mouse; details: total 0.1, 0.2 or 0.4 mg/day, twice a week for 4 weeks; FIG. 49
Procedure: as §1, with “The compounds were administered intraperitoneally (0.1 mL/mouse, 3 to 5 mice/test compound) 3 times daily (one hour interval, a total of 0.2 mg/day), 3 times a week for 2 weeks.” left out
In the same manner as Example 5, human pancreatic cancer derived AsPC-1 cells were transplanted subcutaneously to the right side on the back of a 6-week-old male nude mouse (SLC, BALB/cSlc-nu/nu) (5×10^6/0.1 mL/mouse). The length (L) and width (W) of the tumor were measured using a digital caliper. When the tumor volume (V) calculated from the formula V=L×W^2/2 reached about 150 to 200 mm^3, the mice were separated into groups and administered with test compounds (GT-11269, GT-11309, and GT-11350). […]

[8] = tested on: human breast cancer derived HCC1806 cells; assay: HCC1806 breast cancer cell proliferation, amount of ATP (CellTiter-Glo 2.0); assay type: cell-based; details: 0 to 100 μM, 72 hours; FIG. 44 right
Procedure: (§4) Human breast cancer derived HCC1395 cells (ATCC, CRL-2327) and HCC1806 (ATCC, CRL-2335) were cultured, collected, and seeded on a 384-well microplate (1×10^3 and 3×10^3/0.04 mL/well). After culturing the cells overnight, a medium comprising GT-11350 (0 to 100 μM) was added (0.01 mL/well). After 72 hours, the cell proliferation capability for each well against the control (test compound-free well) was calculated using the amount of ATP as an indicator, which was measured using CellTiter-Glo 2.0 (Promega, G9242).

[9] = tested on: human breast cancer derived HCC1395 cells; assay: HCC1395 breast cancer cell proliferation, amount of ATP (CellTiter-Glo 2.0); assay type: cell-based; details: 0 to 100 μM, 72 hours; FIG. 44 left
Procedure: as §4

Compound | proliferation inhibiting action against AsPC-1 cells (inhibition ratio against control) [1] | HepG2 cell killing effect compared with YS12 (Trypan blue positive cells per 1 mm^2) [3] | proliferation inhibiting action on ATL-2 cells (inhibition ratio against control) [4] | antitumor effect (relative tumor volume) ([5]; 3 times daily) | further results
Ac-SCHYGPLT(2-benzothiazolylalanine)VCK-NH2 (Ac-SCHYGPLT[Ala(benzothiazol-2-yl)]VCK-NH2; disulfide 2-11 (inferred)) [GT-11309] | potent proliferation inhibiting action | equivalent or greater than that of YS12 | potent proliferation inhibiting action | potent and had an early manifestation of effect | Epo dependent cancer cell proliferation (UT-7) [2]: suppressed Epo dependent cancer cell proliferation
Ac-SCHYGPMT(2-benzothiazolylalanine)VCK-NH2 [GT-11350] | potent proliferation inhibiting action |  |  |  | blood hemoglobin concentration [6]: none of the doses had an effect; hematocrit value [6]: none of the doses had an effect; body weight [7]: not affected; proliferation suppressing capability against breast cancer cell line HCC1806 [8]: exhibited proliferation suppressing capability; proliferation suppressing capability against breast cancer cell line HCC1395 [9]: exhibited proliferation suppressing capability; anti-tumor effect, 3 times daily versus once daily ([5]; 0.2 mg/day, 3 times daily or once daily, twice a week for 4 weeks, FIG. 51): same anti-tumor effect for both 3 times daily and once daily administration methods; anti-tumor effect (relative tumor volume) by dose ([5]; 3 times daily, total 0.1, 0.2 or 0.4 mg/day, twice a week for 4 weeks, FIG. 49): dose dependent anti-tumor effect
Ac-SCHYGPLT(2-quinolylalanine)VCK-NH2 (Ac-SCHYGPLT[2‑quinolylalanine]VCK-NH2; disulfide 2-11 (inferred)) [GT-11308] |  | equivalent or greater than that of YS12 | potent proliferation inhibiting action |  | 
(propionyl)-SCHFGPLTWVCK-NH2 (Propionyl-SCHFGPLTWVCK-NH2; disulfide 2-11 (inferred)) [GT-11257] |  |  |  |  | proliferation inhibiting action on AsPC-1 cells (inhibition ratio against control) ([1]; 150 μM, FIG. 38): potent proliferation inhibiting action
Ac-SCH(phenethylglycine)GPLTWVCK-NH2 (Ac-SCH[phenethylglycine]GPLTWVCK-NH2; disulfide 2-11 (inferred)) [GT-11263] |  |  |  | potent antitumor effect | 
CSCC[C@@H]1NC(=O)[C@@H]2CCCN2C(=O)CNC(=O)[C@H](Cc2ccccc2)NC(=O)[C@H](Cc2c[nH]cn2)NC(=O)[C@@H](NC(=O)[C@H](CO)NC(C)=O)CSSC[C@@H](C(=O)N[C@@H](CCCCN)C(N)=O)NC(=O)[C@H](C(C)C)NC(=O)[C@H](Cc2c[nH]c3ccccc23)NC(=O)[C@H]([C@@H](C)O)NC1=O [GT-11269, Ac-SCHFGPMTWVCK-NH2] (Ac-SCHFGPMTWVCK-NH2; disulfide 2-11) | potent proliferation inhibiting action |  | potent proliferation inhibiting action | potent and had an early manifestation of effect | 
